The test system of one assay is HCT116 MTAP KO cells. Put plainly: Inhibitory activity against cell proliferation (CellTiter Glo, 6 days), HCT116 MTAP KO. Format: cell-based. Particulars: for IC50: Homo sapiens, HCT-116, 144 h, HCT116 MTAP KO cells, 6 days, CellTiter Glo, read-out: HCT116 MTAP KO IC50; for Selectivity HCT 116-WT/ HCT116 MTAP KO: ratio of IC50 HCT116-WT / HCT116 MTAP KO. In a few lines: (§1)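 HCT116 wild-type or MTAP-knockout cells (250/well, McCoy's 5A + 10% FBS) treated after overnight culture with 8-point 4-fold dilutions from 10000 nM for 6 days at 37 °C. Viability read by CellTiter Glo luminescence on day 7; IC50 calculated against DMSO controls.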

The test system of another assay is HCT116-WT cells. Put plainly: Inhibitory activity against cell proliferation (CellTiter Glo, 6 days), HCT116-WT. Format: cell-based. Conditions: 144 h, HCT116-WT cells, 6 days, CellTiter Glo; read-out: HCT116-WT IC50. Summed up:
as §1

A further assay has as its target PRMT5-MTA (Homo sapiens, UniProt O14744). Put plainly: Enzymatic inhibitory activity against PRMT5-MTA (AlphaScreen). In kind it is biochemical. In a few lines:
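PRMT5/[…] (1 nM) was preincubated for 30 min at room temperature with 1 µM […] and 2.5 µM SAM, then exposed to compound (10-point, 3-fold from 1000 nM) for 15 min at 23 °C. Histone H4 substrate (5 nM) was added and reacted for 45 min at 23 °C. Symmetric dimethyl-R3 H4 was detected by AlphaScreen and IC50 calculated.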

Like-named read-outs stand apart in the source and are kept apart here.

Sequence of PRMT5-MTA (O14744 whole entry): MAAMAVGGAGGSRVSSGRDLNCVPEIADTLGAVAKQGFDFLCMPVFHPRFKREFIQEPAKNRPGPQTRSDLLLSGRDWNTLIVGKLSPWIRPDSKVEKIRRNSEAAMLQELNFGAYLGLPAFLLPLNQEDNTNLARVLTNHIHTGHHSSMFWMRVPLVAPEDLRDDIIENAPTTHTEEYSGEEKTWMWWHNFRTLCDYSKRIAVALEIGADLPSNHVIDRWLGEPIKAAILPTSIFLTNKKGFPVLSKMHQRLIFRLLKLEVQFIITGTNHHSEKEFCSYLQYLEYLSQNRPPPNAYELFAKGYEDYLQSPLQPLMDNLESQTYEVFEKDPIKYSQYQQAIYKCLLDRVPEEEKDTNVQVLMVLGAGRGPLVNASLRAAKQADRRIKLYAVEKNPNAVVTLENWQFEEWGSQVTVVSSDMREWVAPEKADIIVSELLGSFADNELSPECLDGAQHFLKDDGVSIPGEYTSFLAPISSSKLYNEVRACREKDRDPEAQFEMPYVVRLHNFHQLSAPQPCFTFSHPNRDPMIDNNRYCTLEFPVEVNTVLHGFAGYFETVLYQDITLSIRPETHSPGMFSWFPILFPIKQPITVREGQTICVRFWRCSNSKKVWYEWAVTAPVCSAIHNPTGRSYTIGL
Sequence of PRMT5-MTA (Q9BQA1 whole entry partner): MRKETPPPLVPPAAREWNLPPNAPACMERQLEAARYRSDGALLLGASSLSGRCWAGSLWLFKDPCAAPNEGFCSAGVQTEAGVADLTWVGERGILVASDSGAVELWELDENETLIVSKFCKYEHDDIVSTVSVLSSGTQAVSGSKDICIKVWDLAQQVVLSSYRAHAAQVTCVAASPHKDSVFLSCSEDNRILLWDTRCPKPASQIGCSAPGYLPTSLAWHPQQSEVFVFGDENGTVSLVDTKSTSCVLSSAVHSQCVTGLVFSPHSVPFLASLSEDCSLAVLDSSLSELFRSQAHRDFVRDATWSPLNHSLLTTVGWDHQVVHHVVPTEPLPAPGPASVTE

In the case of `Nc1nc2ccc(C(=O)N(Cc3ccc(C(F)(F)F)cn3)N(c3ncccn3)C3CC3)cc2cc1Br` [Example 270, 2-amino-3-bromo-N'-cyclopropyl-N'-(pyrimidin-2-yl)-N-((5-(trifluoromethyl)pyridin-2-yl)methyl)quinoline-6-carbohydrazide], the results for the IC50 in the assay on HCT116 MTAP KO cells, in the assay with HCT116-WT cells and on PRMT5-MTA (read-out: IC50) were 110 nM, 1510 nM and 4.9 nM, respectively. In addition, the “Selectivity HCT 116-WT/ HCT116 MTAP KO” value in the assay on HCT116 MTAP KO cells was determined as 13.74.

With `Cc1ccc(-c2ccc(CN(C(=O)c3ccc4nc(N)c(C)cc4c3)N(C)c3ncccn3)nc2)cn1` [Example 160, 2-amino-N',3-dimethyl-N-((6'-methyl-[3, 3'-bipyridine]-6-yl)methyl)-N'-(pyrimidin-2-yl)quinoline-6-carbohydrazide], the IC50 in the assay with HCT116 MTAP KO cells came out at 27 nM; with HCT116-WT cells it was 580 nM; on PRMT5-MTA (read-out: IC50), 2 nM. The “Selectivity HCT 116-WT/ HCT116 MTAP KO” value in the assay with HCT116 MTAP KO cells was determined as 21.48.

Take `Cc1cc2nc(N)c3cnn(C)c3c2cc1C(=O)N1CC(OCC(F)(F)F)CN1c1ncccc1F` (centres unmarked) [Example 452, (4-amino-1,7-dimethyl-1H-pyrazolo[4,3-c]quinolin-8-yl)(2-(3-fluoropyridin-2-yl)-4-(2,2,2-trifluoroethoxy)pyrazolidin-1-yl) methanone]: the IC50 with HCT116 MTAP KO cells turned out to be 45 nM; in the assay on HCT116-WT cells, 1420 nM; on PRMT5-MTA (read-out: IC50), 7.3 nM. For the same compound, the “Selectivity HCT 116-WT/ HCT116 MTAP KO” value with HCT116 MTAP KO cells was found to be 31.67.

Turning to `COC1CN(C(=O)c2cc3c(cc2Cl)nc(N)c2cnn(C)c23)N(c2ccccc2F)C1` (centres unmarked) [Example 437, (4-amino-7-chloro-1-methyl-1H-pyrazolo [4,3-c]quinolin-8-yl)(2-(2-fluorophenyl)-4-methoxypyrazolidin-1-yl)methanone], the results for the IC50 in the assay on HCT116 MTAP KO cells, in the assay with HCT116-WT cells and at PRMT5-MTA (read-out: IC50) were 13 nM, 242 nM and 4.7 nM, respectively. For the same compound, the “Selectivity HCT 116-WT/ HCT116 MTAP KO” value with HCT116 MTAP KO cells is 18.62.

`[2H]C([2H])([2H])c1cc2cc(C(=O)N(Cc3ccc(C(F)(F)F)cn3)N(C)c3nccc4nccnc34)ccc2nc1N` [Example 313, 2-amino-N'-methyl-3-(methyl-d3)-N'-(pyrido[3,4-b]pyrazin-5-yl)-N-((5-(trifluoromethyl)pyridin-2-yl)methyl)quinoline-6-c arbohydrazide]: the half-inhibitory concentration (IC50) with HCT116 MTAP KO cells was determined as 38 nM; with HCT116-WT cells, 508 nM; on PRMT5-MTA (read-out: IC50) it was 4.2 nM. For the same compound, the “Selectivity HCT 116-WT/ HCT116 MTAP KO” value with HCT116 MTAP KO cells is recorded as 13.37.

For the compound `CC(C)c1cc2cc(C(=O)N(Cc3ccc(C(F)(F)F)cn3)N(C)c3ncccn3)ccc2nc1N` [Example 26, 2-amino-3-isopropyl-N'-methyl-N'-(pyrimidin-2-yl)-N-((5-(trifluoromethyl)pyridin-2-yl)methyl)quinoline-6-carbohydrazide], the IC50 was 444 nM in the assay with HCT116 MTAP KO cells, 9200 nM with HCT116-WT cells and 2.4 nM at PRMT5-MTA (read-out: IC50). Besides, in the assay with HCT116 MTAP KO cells, the “Selectivity HCT 116-WT/ HCT116 MTAP KO” value was 20.73.

`Cc1cc2cc(C(=O)N(Cc3ccc(C(F)(F)F)cn3)N(C)c3ncc(OC(F)F)cn3)ccc2nc1N` [Example 57, 2-amino-N'-(5-(difluoromethoxy)pyrimidin-2-yl)-N',3-dimethyl-N-((5-(trifluoromethyl)pyridin-2-yl)methyl)quinoline-6-carbohydrazide]: the values for the IC50 with HCT116 MTAP KO cells, in the assay on HCT116-WT cells and at PRMT5-MTA (read-out: IC50) were 490 nM, 5640 nM and 1.9 nM, respectively. Also, the “Selectivity HCT 116-WT/ HCT116 MTAP KO” value in the assay with HCT116 MTAP KO cells is recorded as 11.51.

On to `Cc1cc2cc(C(=O)N(Cc3ccc(C(F)(F)F)cn3)N(C)c3ncc4ncccc4n3)ccc2nc1N` [Example 80, 2-amino-N',3-dimethyl-N'-(pyrido[3,2-d]pyrimidin-2-yl)-N-((5-(trifluoromethyl)pyridin-2-yl)methyl)quinoline-6-carbohydrazide], for which the IC50 in the assay on HCT116 MTAP KO cells came to 132 nM; in the assay with HCT116-WT cells, 1870 nM; on PRMT5-MTA (read-out: IC50), 1.9 nM. In addition, the “Selectivity HCT 116-WT/ HCT116 MTAP KO” value with HCT116 MTAP KO cells worked out at 14.18.

For `Cn1ncc2c(N)nc3cc(Cl)c(C(=O)N4CC(F)(F)CN4c4ncc(F)cc4F)cc3c21` [Example 458, (4-amino-7-chloro-1-methyl-1H-pyrazolo [4,3-c]quinolin-8-yl)(2-(3,5-difluoropyridin-2-yl)-4,4-difluoropyrazolidin-1-yl)met hanone], the values for the IC50 in the assay on HCT116 MTAP KO cells, in the assay with HCT116-WT cells and at PRMT5-MTA (read-out: IC50) were 15 nM, 371 nM and 5.1 nM, respectively. In addition, the “Selectivity HCT 116-WT/ HCT116 MTAP KO” value in the assay with HCT116 MTAP KO cells was 24.73.

With `Cc1cc2cc(C(=O)N(Cc3ccc(-c4cnn(CC(F)(F)F)c4)cn3)N(C)c3ncccn3)ccc2nc1N` [Example 181, 2-amino-N',3-dimethyl-N'-(pyrimidin-2-yl)-N-((5-(1-(2,2,2-trifluoroethyl)-1H-pyrazol-4-yl)pyridin-2-yl)methyl)quinoline-6-carbohydrazide], the IC50 in the assay on HCT116 MTAP KO cells was 36 nM; with HCT116-WT cells it was 865 nM; on PRMT5-MTA (read-out: IC50), 0.69 nM. Besides, in the assay with HCT116 MTAP KO cells, the “Selectivity HCT 116-WT/ HCT116 MTAP KO” value amounted to 24.03.

For the compound `Cc1ncc(-c2cnc(N3CC(C)CN3C(=O)c3cc4c(cc3C)nc(N)c3cnn(C)c34)c(F)c2)s1` (centres unmarked) [Example 476, (4-amino-1,7-dimethyl-1H-pyrazolo[4,3-c]quinolin-8-yl)(2-(3-fluoro-5-(2-methylthiazol-5-yl)pyridin-2-yl)-4-methylpyrazolidin-1-yl)methanone], the half-maximal inhibitory concentration (IC50) was found to be 28 nM in the assay on HCT116 MTAP KO cells, 942 nM in the assay with HCT116-WT cells and 5.6 nM at PRMT5-MTA (read-out: IC50). In addition, in the assay with HCT116 MTAP KO cells, the “Selectivity HCT 116-WT/ HCT116 MTAP KO” value turned out to be 33.64.

For `Cn1ncc2c(N)nc3cc(Cl)c(C(=O)N4CC(C)(F)CN4c4ccccc4F)cc3c21` (centres unmarked) [Example 419], the half-inhibitory concentration (IC50) in the assay with HCT116 MTAP KO cells was 14 nM; in the assay on HCT116-WT cells, 226 nM; on PRMT5-MTA, 4.6 nM. The “Selectivity HCT 116-WT/ HCT116 MTAP KO” value with HCT116 MTAP KO cells amounted to 16.14.

For `COCC1CN(C(=O)c2cc3c(cc2C)nc(N)c2cnn(C)c23)N(c2ncccc2F)C1` (centres unmarked) [Example 357], the IC50 in the assay on HCT116 MTAP KO cells worked out at 16 nM; with HCT116-WT cells, 852 nM; against PRMT5-MTA, 3.4 nM. Moreover, the “Selectivity HCT 116-WT/ HCT116 MTAP KO” value in the assay with HCT116 MTAP KO cells was 53.25.

For the compound `[2H]C([2H])([2H])c1cc2cc(C(=O)N(Cc3ccc(-c4scnc4C)cn3)N(c3ncccn3)C3CC3)ccc2nc1N` [Example 316, 2-amino-N'-cyclopropyl-3-(methyl-D3)-N-((5-(4-methylthiazol-5-yl)pyridin-2-yl)methyl)-N'-(pyrimidin-2-yl)quinoline-6-c arbohydrazide], the IC50 with HCT116 MTAP KO cells worked out at 11 nM; in the assay with HCT116-WT cells it was 215 nM; at PRMT5-MTA (read-out: IC50), 6.8 nM. In addition, in the assay on HCT116 MTAP KO cells, the “Selectivity HCT 116-WT/ HCT116 MTAP KO” value is recorded as 19.55.

Turning to `Cc1cc2cc(C(=O)N(Cc3ccc(-c4cnoc4)cn3)N(C)c3ncccn3)ccc2nc1N` [Example 182, 2-amino-N-((5-(isoxazol-4-yl)pyridin-2-yl)methyl)-N',3-dimethyl-N'-(pyrimidin-2-yl)quinoline-6-carbohydrazide], in the assay on HCT116 MTAP KO cells, the IC50 came to 131 nM and the “Selectivity HCT 116-WT/ HCT116 MTAP KO” value was 25.89. Further, in the assay on HCT116-WT cells, the IC50 worked out at 3390 nM.

`CCn1cc(-c2ccc(CN(C(=O)c3ccc4nc(N)c(C)cc4c3)N(C)c3ncccn3)nc2)cn1` [Example 206, 2-amino-N-((5-(1-ethyl-1H-pyrazol-4-yl)pyridin-2-yl)methyl)-N',3-dimethyl-N'-(pyrimidin-2-yl)quinoline-6-carbohydrazide]: in the assay with HCT116 MTAP KO cells, the half-maximal inhibitory concentration (IC50) came to 18 nM and the “Selectivity HCT 116-WT/ HCT116 MTAP KO” value turned out to be 51.17. The IC50 in the assay on HCT116-WT cells worked out at 921 nM.

Turning to `Cc1cc2cc(C(=O)N(Cc3ccc(-c4nc(C#N)cs4)cn3)N(C)c3ncccn3)ccc2nc1N` [Example 230, 2-amino-N-((5-(4-cyanothiazol-2-yl)pyridin-2-yl)methyl)-N',3-dimethyl-N'-(pyrimidin-2-yl)quinoline-6-carbohydrazide], the IC50 in the assay with HCT116 MTAP KO cells worked out at 27 nM; in the assay with HCT116-WT cells it was 279 nM. In the assay with HCT116 MTAP KO cells, the “Selectivity HCT 116-WT/ HCT116 MTAP KO” value is given as 10.33.

Consider `Cc1cc2nc(N)c3cnn(C)c3c2cc1C(=O)N1CCCN1c1ncc(-c2cnn(C(F)(F)F)c2)cc1F` [Example 480, (4-amino-1,7-dimethyl-1H-pyrazolo[4,3-c]quinolin-8-yl)(2-(3-fluoro-5-(1-(trifluor omethyl)-1H-pyrazol-4-yl)pyridin-2-yl)pyrazolidin-1-yl)methanone], for which, in the assay with HCT116 MTAP KO cells, the IC50 was found to be 55 nM and the “Selectivity HCT 116-WT/ HCT116 MTAP KO” value was 32.16. The IC50 in the assay on HCT116-WT cells was found to be 1770 nM.

On to `Cn1ncc2c(N)nc3cc(Cl)c(C(=O)N4CC(C)(F)CN4c4ncc(Br)cc4F)cc3c21` (centres unmarked) [Example 420, (4-amino-7-chloro-1-methyl-1H-pyrazolo [4,3-c]quinolin-8-yl)(2-(5-bromo-3-fluor opyridin-2-yl)-4-fluoro-4-methylpyrazolidin-1-yl)methanone], for which the values for the IC50 in the assay with HCT116 MTAP KO cells and in the assay on HCT116-WT cells were 26 nM and 743 nM, respectively. Moreover, the “Selectivity HCT 116-WT/ HCT116 MTAP KO” value in the assay on HCT116 MTAP KO cells is reported as 28.58.

Consider `Cc1cc2nc(N)c3cnn(C)c3c2cc1C(=O)N1CCCN1c1ncc(-c2ccsc2)cc1F` [Example 483, (4-amino-1,7-dimethyl-1H-pyrazolo[4,3-c]quinolin-8-yl)(2-(3-fluoro-5-(thien-3-yl)pyridin-2-yl)pyrazolidin-1-yl)methanone], for which, in the assay on HCT116 MTAP KO cells, the IC50 was 100 nM and the “Selectivity HCT 116-WT/ HCT116 MTAP KO” value worked out at 41.72. Also, the half-maximal inhibitory concentration (IC50) with HCT116-WT cells turned out to be 4170 nM.

For `Cc1cc2cc(C(=O)N(Cc3ccc(-c4ccc(N(C)C(C)C)nc4)cn3)N(C)c3ncccn3)ccc2nc1N` [Example 257, 2-amino-N-((6'-(isopropyl(methyl)amino) -[3,3'-bipyridin]-6-yl)methyl)-N',3-dimet hyl-N'-(pyrimidin-2-yl)quinoline-6-carbo hydrazide], the IC50 with HCT116 MTAP KO cells worked out at 76 nM; in the assay with HCT116-WT cells, 1020 nM. Also, the “Selectivity HCT 116-WT/ HCT116 MTAP KO” value in the assay with HCT116 MTAP KO cells was found to be 13.42.

(Values after patent publication EP4745134A1 (Jiangsu Yahong Meditech Co., Ltd., priority 2023, dated 2025).)
